{
  "source": "ChEMBL document CHEMBL6177918",
  "about": "“Generation and capture of naphthoquinonynes: a new frontier in the development of trypanocidal quinones via aryne chemistry” (RSC Med Chem, 2025)",
  "data": [
    {"system": "Trypanosoma cruzi", "test": "Trypanocidal activity against Trypanosoma cruzi trypomastigotes incubated for 24 hrs", "format": "functional, organism-based", "units": {"IC50": "µM"}, "values": [
      {"compound": "O=C(Cn1ccnc1[N+](=O)[O-])NCc1ccccc1", "note": "[BENZNIDAZOLE]", "IC50": 6.8},
      {"compound": "CCOC(=O)/C=C/c1cccc2c1C(=O)C=CC2=O", "IC50": 90.5},
      {"compound": "O=C1C=CC(=O)c2c(O)cccc21", "note": "[JUGLONE]", "IC50": 105},
      {"compound": "O=C1C=CC(=O)c2c([Se]c3ccccc3)cccc21", "IC50": 14.4},
      {"compound": "O=C1C=CC(=O)c2c1cccc2-n1cc(-c2ccccc2)nn1", "IC50": 86.7}
    ]},
    {"system": "Trypanosoma cruzi", "test": "Trypanocidal activity against bloodstream Trypanosoma cruzi trypomastigotes incubated for 24 hrs by light microscopy", "format": "functional, organism-based", "units": {"IC50": "µM"}, "values": [
      {"compound": "Cc1ccc(Nc2ccc3c(c2)C(=O)C=CC3=O)cc1", "IC50": 138},
      {"compound": "COCC12C=CC(O1)c1cc3c(cc12)C(=O)C=CC3=O", "note": "(stereo not drawn)", "IC50": 58.1},
      {"compound": "O=C(Cn1ccnc1[N+](=O)[O-])NCc1ccccc1", "note": "[BENZNIDAZOLE]", "IC50": 108},
      {"compound": "COc1ccc(OC)c2cc([Si](C)(C)C)c(O)cc12", "IC50": 69.3},
      {"compound": "CC12C=CC(C)(O1)c1cc3c(cc12)C(=O)C=CC3=O", "IC50": 40},
      {"compound": "CCC12C=CC(O1)c1cc3c(cc12)C(=O)C=CC3=O", "note": "(stereo not drawn)", "IC50": 48.8},
      {"compound": "CC(=O)OCC12C=CC(O1)c1cc3c(cc12)C(=O)C=CC3=O", "note": "(stereo not drawn)", "IC50": 27.3},
      {"compound": "CC(C)N(c1ccc2c(c1)C(=O)C=CC2=O)C(C)C", "IC50": 18},
      {"compound": "CCN(CC)c1ccc2c(c1)C(=O)C=CC2=O", "IC50": 96.2},
      {"compound": "CCN(CC)C(=O)Oc1ccc2c(OC)ccc(OC)c2c1", "IC50": "> 800"},
      {"compound": "O=C1C=CC(=O)c2cc(Nc3cccc4ccccc34)ccc21", "IC50": 186},
      {"compound": "N#Cc1ccc(Nc2ccc3c(c2)C(=O)C=CC3=O)cc1", "IC50": 94.8},
      {"compound": "O=C1C=CC(=O)c2cc(-c3cccc(-c4ccccc4)n3)c(O)cc21", "IC50": 30.1},
      {"compound": "CC(C)=C1C2C=CC1c1cc3c(cc12)C(=O)C=CC3=O", "IC50": "> 800"},
      {"compound": "CC(=O)C12C=CC(O1)c1cc3c(cc12)C(=O)C=CC3=O", "note": "(stereo not drawn)", "IC50": 64.4},
      {"compound": "CN(c1ccccc1)c1ccc2c(c1)C(=O)C=CC2=O", "IC50": 29.5},
      {"compound": "COc1ccc(OC)c2cc(O)ccc12", "IC50": 379},
      {"compound": "O=C1C=CC(=O)c2cc(N(C3CCCCC3)C3CCCCC3)ccc21", "IC50": 54.2},
      {"compound": "O=C1C=CC(=O)c2cc(N(Cc3ccccc3)Cc3ccccc3)ccc21", "IC50": "> 400"},
      {"compound": "O=C1C=CC(=O)c2cc(-c3ccc(-c4ccccc4)nc3)c(O)cc21", "IC50": 10.5},
      {"compound": "C=CCN(CC=C)c1ccc2c(c1)C(=O)C=CC2=O", "IC50": 111},
      {"compound": "Cc1ccncc1-c1cc2c(cc1O)C(=O)C=CC2=O", "IC50": 181},
      {"compound": "COc1ccc(OC)c2ccccc12", "IC50": "> 500"},
      {"compound": "O=C1C=CC(=O)c2cc(Nc3ccccc3)ccc21", "IC50": 39.2},
      {"compound": "O=C1C=CC(=O)c2cc(-c3cnc4ccccc4c3)c(O)cc21", "IC50": 46.6},
      {"compound": "O=C1C=CC(=O)c2cc(OCCCCOc3ccccc3)ccc21", "IC50": 362},
      {"compound": "Cc1ccc(-c2cc3c(cc2O)C(=O)C=CC3=O)cn1", "IC50": 24.2},
      {"compound": "O=C1C=CC(=O)c2cc(N(c3ccccc3)c3ccccc3)ccc21", "IC50": 134},
      {"compound": "O=C1C=CC(=O)c2cc(-n3cccn3)ccc21", "IC50": 74.4},
      {"compound": "O=C1C=CC(=O)c2cc3c(cc21)C1C=CC3O1", "IC50": 10.1}
    ]},
    {"system": "not listed separately", "test": "Solubility of compound", "format": "physicochemical", "values": [
      {"compound": "COc1ccc(OC)c2cc([Si](C)(C)C)c(OS(=O)(=O)C(F)(F)C(F)(F)C(F)(F)C(F)(F)F)cc12", "solubility": "Insoluble"},
      {"compound": "O=C1C=CC(=O)c2cc(-c3cccnc3)c(O)cc21", "solubility": "Insoluble"}
    ]},
    {"system": "not listed separately", "test": "Stability of compound", "format": "physicochemical", "values": [
      {"compound": "C[Si](C)(C)c1cc2c(cc1OS(=O)(=O)C(F)(F)C(F)(F)C(F)(F)C(F)(F)F)C(=O)C=CC2=O", "Stability": "Unstable"}
    ]}
  ]
}
